# Measurements taken from ChEMBL document CHEMBL1156829 (Proc Natl Acad Sci U S A, 2008).
# What was measured:
# Plasmodium falciparum [1] = experiment: NOVARTIS: Inhibition of Plasmodium falciparum 3D7 (drug-susceptible) proliferation in erythrocyte-based infection assay; assay type: functional, organism-based; settings: Plasmodium falciparum, 3D7
# Plasmodium falciparum [2] = experiment: NOVARTIS: Inhibition of Plasmodium falciparum W2 (drug-resistant) proliferation in erythrocyte-based infection assay; assay type: functional, organism-based; settings: Plasmodium falciparum, W2; read-out: EC50
# [3] = NOVARTIS: Cytotoxicity against human hepatocellular carcinoma cell line (Huh7); assay type: toxicity, cell-based, Huh-7; settings: Huh7 cells (hepatocellular carcinoma cell line)
Compound,EC50 (Plasmodium falciparum [1]),EC50 (Plasmodium falciparum [2]),CC50 [3]
CCN1/C(=C/c2sc3ccc(I)cc3[n+]2CC)C=Cc2ccccc21,550 nM,364 nM,> 10 µM
CN(Cc1ccccc1)C(=O)CCNS(=O)(=O)c1cc(Br)cnc1N,614 nM,355 nM,> 10 µM
O=C(C1CC1)N1CCN=C1SCc1ccc(C(F)(F)F)cc1,6080 nM,> 3700 nM,> 100 µM
COCCCNC(=O)C=Cc1ccc(C(C)C)cc1,5940 nM,3580 nM,> 100 µM
CCOc1ccc(CN2CCN(CC(O)COc3ccc(OCC(O)CN4CCN(Cc5ccc(OCC)cc5)CC4)cc3)CC2)cc1 (stereo not given),1370 nM,2680 nM,73.7 µM
CCN(CC)CCCC(C)Nc1ccnc2ccc(-c3ccccc3)cc12 (stereo not given),264 nM,359 nM,> 10 µM
Cc1cc(Nc2cccc(C(F)(F)F)c2)nc(NCc2ccccc2)n1,178 nM,553 nM,15.6 µM
CCCCCc1ccc(C(=O)NCCCCNc2ccnc3cc(Cl)ccc23)cc1,386 nM,353 nM,> 10 µM
CCCn1c(=N)c(C(=O)NC(C)c2ccccc2)cc2c(=O)n3cccc(C)c3nc21 (stereo not given),1650 nM,3530 nM,> 100 µM
COc1cc(OC)cc(C(=O)N(CCCC(C)Nc2cc(OC)cc3cccnc23)Cc2ccc(Cl)cc2)c1 (stereo not given),> 439 nM,348 nM,9.86 µM
Cc1cc(-c2cnc(C)nc2C2CCN(C(=O)c3ccc4ncccc4c3)CC2)on1,> 917 nM,420 nM,> 11.6 µM
CN(CCCNc1ccnc2cc(Cl)ccc12)S(=O)(=O)c1ccc2ccccc2c1,282 nM,200 nM,> 5.54 µM
CCCCCCCCCC(=O)N(C)CCCNc1ccnc2cc(Cl)ccc12,126 nM,206 nM,5.71 µM
CCCCN(C)C(=O)CSc1nc(NCc2ccccc2)c2ccccc2n1,> 1650 nM,361 nM,> 10 µM
Cn1nc(C(=O)Nc2ccc(F)c(Cl)c2)c2c1-c1ccccc1S(=O)(=O)C2,> 12500 nM,3610 nM,> 100 µM
CN(C)CCNc1ncc(C(=O)NCc2ccccc2)c(NCCc2ccccc2)n1,475 nM,361 nM,> 10 µM
O[C@@H]1[C@H]2c3cc4c(cc3CN3CCC(=C[C@@H]1O)[C@H]23)OCO4,46.5 nM,361 nM,> 10 µM
O=C(NCC1(c2ccccc2)CCCC1)C(=O)Nc1nncs1,> 806 nM,> 360 nM,> 10 µM

Compound,EC50 (Plasmodium falciparum [1]),EC50 (Plasmodium falciparum [2]),CC50 [3]
COC(=O)c1c(S(=O)(=O)NCc2cccc(Cl)c2)sc2c1CCN(C(=O)C1CCCO1)C2 (stereo not given),> 608 nM,> 360 nM,> 10 µM
CCC[P+](CCC)(CCC)CC1OCc2ccccc2CO1,1800 nM,3600 nM,> 100 µM
COc1ccc(C2CC(c3c(-c4ccccc4)c4cc(Cl)ccc4[nH]c3=O)=NO2)cc1 (stereo not given),624 nM,> 359 nM,> 10 µM
O=C(Nc1ccc(SC(F)(F)F)cc1)Nc1cccnc1N1CCC(C(F)(F)F)CC1,1770 nM,1420 nM,39.7 µM
COc1ccc(CNc2ncnc3c2[nH]c2cc(OC)ccc23)cc1,958 nM,856 nM,24.1 µM
FC(F)(F)c1cccc(NC(=S)N2CCCC2c2ccncc2)c1 (stereo not given),327 nM,370 nM,> 10 µM
O=C(NCc1ccccc1)c1cnc(NCCCn2ccnc2)nc1Nc1ccccc1,611 nM,369 nM,> 10 µM
OC(CCNC1CCCCC1)COc1cccc2ccccc12 (stereo not given),789 nM,366 nM,> 10 µM
CCC(C)NC(=O)c1c[nH]c2ccc(S(=O)(=O)N(C)c3cc(C)ccc3C)cc2c1=O (stereo not given),5220 nM,2170 nM,59.3 µM
CC1CCCN(C(=O)C2CCN(Cc3ccccn3)CC2)C1 (stereo not given),> 9140 nM,3580 nM,> 100 µM
Cc1cc(C)cc(C(=O)Nc2c3c(nn2-c2cccc(C)c2C)CS(=O)(=O)C3)c1,329 nM,358 nM,> 10 µM
O=C(/C=C/c1ccccn1)NCC1Cc2cc(-c3cnccn3)ccc2O1 (stereo not given),> 1250 nM,> 356 nM,> 10 µM
CC(C)N(CC(=O)Nc1cc(C(C)(C)C)nn1-c1ccc(Cl)c(Cl)c1)C(=O)c1ccc(Cl)c(Cl)c1,1010 nM,356 nM,> 10 µM
COc1ccc(CN2CSC3=C(C#N)C(c4cccc(OC)c4)CC(=O)N3C2)cc1 (stereo not given),3700 nM,3550 nM,> 100 µM
c1ccc(-c2cc(N3CCOCC3)nc(-c3ccccn3)n2)nc1,907 nM,372 nM,> 10 µM
O=C1N(Cc2cc3ccccc3s2)CC2CN(Cc3ccccc3)CCN12 (stereo not given),436 nM,372 nM,> 10 µM
Cc1cc(Nc2cccc(Cl)c2)nc(NCc2ccccc2)n1,51 nM,607 nM,17.1 µM
